Consider 2 compounds from patent US7462227B2 (E.I. du Pont de Nemours and Company, priority 2005, dated 2008).

“Also recorded” adds a separate entry of the source.

Data set [1] in a line: Solubility.
Method: In general, solubility of the complex is determined by visual observation, and a complex is considered to be solbilized when a sufficient amount of the complex is dissolved in the solution to permit a desired amount of the complex to be adsorbed on and/or absorbed in the cellulosic material when the treatment thereof occurs.
The test system of data set [2] is termites. The following applies: Connick et al 2001; cited from earlier work.

In the case of `CC(C)Cc1ccc(C(C)C(=O)[O-])cc1.[Na+]` (centres unmarked) [sodium ibuprofenate], in data set [1], the “solubility in methanol and ethanol” value is “soluble”; the solubility in water result is reported as “relatively insoluble”.

In the case of `CC(C)Cc1ccc(C(C)C(=O)O)cc1` (centres unmarked) [ibuprofen], the toxicity to termites result in data set [2] is “toxic”. Moreover, in data set [1], the “solubility in methanol and ethanol” value is “soluble”; the solubility in water result is “relatively insoluble; also recorded: only slightly soluble”.
